Measured values reported in patent US20050176746A1, “Use of compounds that are effective as selective opiate receptor modulators” (priority 2002, published 2005).

How the values were obtained:
[1] = test system: healthy subjects; assay: Satiety test (nutrient drink; maximum volume ingested and postprandial symptoms), Phase I study, 7-day treatment; format: in vivo, human
Text: (§1) A a single center, randomized, double-blind, placebo controlled, parallel group Phase I study has been performed. The trial evaluates the effects of a 7-day treatment with 2 different doses of the peripherally selective opiate receptor modulator asimadoline (N-methyl-N-[(1S)-1-phenyl-2-((3S)-3-hydroxypyrrolidin-1-yl)ethyl]-2,2-diphenylacetamide hydrochloride, EMD 61 753) on gastrointestinal and colonic transit and sensorimotor functions in healthy subjects in comparison to placebo.
All subjects have undergone a satiety test prior to and under medication, a scintigraphic gastric and colonic transit test, and, after overnight bowel preparation, a barostat test assessing colonic compliance and colonic sensation prior to and under medication, and fasting colonic tone and colonic response to a standardized meal under medication.
Specific aims of this study have been the comparison of the effects of 7 day treatment with placebo and three doses of asimadoline as described above on: • satiety after ingestion of a nutrient drink • colonic aggregate sensation score in response to distension in healthy subjects • thresholds for colonic sensation of gas and pain in response to distension in healthy subjects • fasting colonic compliance and tone • postprandial tonic response to standard meal ingestion
(§2) A further aim of the study was to compare the gastrointestinal and colonic transit profiles during the 7-day treatment. The studies on lower dosage (0.15 mg/kg and 0.5 mg/kg versus placebo) were performed separately as Part A and the studies on higher dosage (1.5 mg/kg versus placebo) were performed separately as Part B of the studies (see FIGS. 1 to 4).
The primary endpoint in the satiety test is difference to baseline in the aggregate satiety score 30 min after full satiety.
The analysis of primary motility endpoints (gastric residual percent at 2 hrs, colonic filling (CF) percent at 6 hrs. and colonic geometric center at 24 hrs)and the maximum satiety volume (at day 5) is based on one-way analysis of variance or analysis of covariance methods. The proportions (GE at 2 hrs and CF at 6 hrs)may warrant transformation (e.g., sin^−1{square root}) prior to analysis to stabilize variation across treatment groups. Analysis of the satiety volumes incorporates the baseline value as a covariate in addition to BMI; or alternatively, the relative changes (log [day 5 volume/baseline volume]) are analyzed with BMI as a covariate.

[2] = test system: colon of healthy subjects; assay: Barostat test (intubated colonic procedure: fasting colonic volume, sensation and pain to distension), Phase I study, 7-day treatment; format: in vivo, human; set-up: key to sensation to distension (VAS score) / pain to distension (VAS score): 100 mm visual analog scale
Text: as §1, §2
All subjects are presented to the General Clinical Research Center at Charlton 7, General Clinical Research Center, on visit 3 after overnight bowel preparation with the oral colonic lavage solution (2-5 L of polyethylene glycol 3350 and electrolyte solution, NuLytely™, Abbott Laboratories, Chicago. IL), and a 12-hour fast.
Flexible colonoscopy is performed to evaluate the left side of the colon and to place a teflon guidewire into the proximal colon under fluoroscopic control. The endoscope is withdrawn.
A barostat catheter is inserted into the colon along the guidewire so that the barostat balloon is located in the upper sigmoid or descending colon. The catheter is connected to a barostat machine using an infinitely compliant 10-cm long balloon with a maximum volume of 600 cc (Hefty Baggies, Mobil Chemical Co., Pittsford, N.Y.) linked to an electronic barostat (Mayo rigid barostat, Mayo Foundation Engineering Department, Rochester, Minn.) which has a rigid piston. The manometric portion comprises six waterperfused (0.4 ml/min) pneumohydraulic sensors, three in the descending colon (sensor numbers 1-3) and three in the sigmoid colon (sensor numbers 4-6). The manometric sensors are 5 cm apart, while the first and second sensors are 5 cm oral and caudal to the balloon respectively. To decrease the effects of abdominal viscera on the balloon volume, the studies are performed with the subjects in a semi-prone position during the entire duration of the study.
Previous studies have shown that an initial “conditioning” distension to 20 mmHg renders subsequent assessments of compliance and perception more reproducible [15. 47. 48]. Following the conditioning distension, colonic compliance and sensory thresholds are measured by ramp inflation with increments of 4 mmHg, o steps at 30 second intervals from 0 to 44 mmHg; thresholds for first sensation and sensation of pain are thus determined using the ascending method of limits.
Immediately prior to assessment of colonic sensation, four 100 mm visual analog scales (VAS) scales using the anchor points “tired-energetic”, “peaceful-tense” and “worried-relaxed” and “active-drowsy” are used to determine the level of arousal, anxiety or stress being experienced by the subject. […] Subsequently, randomized-order phasic distensions at 8, 16, 24, and 32 mm Hg above operating pressure are applied to measure the sensations of gas or pain.
For rating sensory perception, the participants are asked to mark two separate VAS for abdominal pain and feeling of gas at a standardized time, 20 seconds after the distension had commenced. The VAS are anchored at the ends by the descriptions “unnoticeable” and “unbearable”. During assessment of sensation, verbal interaction between the subject and investigator is minimized.
Colonic sensation is assessed before and 1 h after drug administration during the measurement of colonic compliance. This is equivalent to finding the threshold pressures or the initial perception and pain perception during sequential pressure increments using the ascending method of limits.
The participant is allowed to rest for 15 minutes. […]

Compound: CN(C(=O)C(c1ccccc1)c1ccccc1)[C@H](CN1CC[C@H](O)C1)c1ccccc1.Cl [asimadoline, N-methyl-N-[(1S)-1-phenyl-2-((3S)-3-hydroxypyrrolidin-1-yl)ethyl]-2,2-diphenylacetamide hydrochloride]
- maximum ingested volume versus placebo (in words) ([1]; 0.15 mg/kg): increase the maximum ingested volume slightly versus placebo
- aggregate postprandial symptoms (VAS score) ([1]; 0.15 mg/kg, Part A (placebo 180)): 187
- maximum volume ingested (satiety test) ([1]; 0.15 mg/kg, study Part A (placebo 1280 ml)): 1425 mL
- maximum ingested volume versus placebo (in words) ([1]; 0.5 mg/kg): increase the maximum ingested volume significantly versus placebo
- aggregate postprandial symptoms (VAS score) ([1]; 0.5 mg/kg, Part A (placebo 180)): 170
- maximum volume ingested (satiety test) ([1]; 0.5 mg/kg, study Part A (placebo 1280 ml)): 1470 mL
- postprandial symptoms with higher ingested volume (in words) ([1]; 1.5 mg/kg): symptoms increased with increased volume ingested
- aggregate postprandial symptoms (VAS score) ([1]; 1.5 mg/kg, Part B (placebo 162)): 192
- maximum volume ingested (satiety test) ([1]; 1.5 mg/kg, study Part B (placebo 1300 ml)): 1390 mL
- postprandial symptoms with higher ingested volume (in words) ([1]; dosis in the range of 0.5 mg/kg): not associated with an increase in symptoms
- maximum ingested volume, dose dependency (in words) ([1]; higher concentration (1.5 mg/kg)): ceiling effect established
- maximum ingested volume, dose dependency (in words) ([1]; lower end of the dosis range (0.15 mg/kg)): dose response effect established
- fasting volume of the colon at 0 mm pressure ([2]; 0.15 mg/kg, Part A (placebo 1 ml)): 8 mL
- fasting volume versus placebo (in words) ([2]; 0.5 mg/kg): significantly higher
- fasting volume of the colon at 0 mm pressure ([2]; 0.5 mg/kg, Part A (placebo 1 ml)): 21 mL
- perception of distension (in words) ([2]; 0.5 mg/kg, low pressure (8 mm Hg), effect decreases by increasing pressure): significantly reduced
- fasting volume of the colon at 0 mm pressure ([2]; 1.5 mg/kg, Part B (placebo 6 ml)): 24 mL
- pain to distension (VAS score) ([2]; 8 mm Hg, 0.15 mg/kg, Part A (placebo 22)): 25
- sensation to distension (VAS score) ([2]; 8 mm Hg, 0.15 mg/kg, Part A (placebo 37)): 38
- pain to distension (VAS score) ([2]; 8 mm Hg, 0.5 mg/kg, Part A (placebo 22)): 18
- sensation to distension (VAS score) ([2]; 8 mm Hg, 0.5 mg/kg, Part A (placebo 37)): 26
- pain to distension (VAS score) ([2]; 8 mm Hg, 1.5 mg/kg, Part B (placebo 14)): 30
- sensation to distension (VAS score) ([2]; 8 mm Hg, 1.5 mg/kg, Part B (placebo 20)): 31
- pain to distension (VAS score) ([2]; 16 mm Hg, 0.15 mg/kg, Part A (placebo 33)): 28
- sensation to distension (VAS score) ([2]; 16 mm Hg, 0.15 mg/kg, Part A (placebo 43)): 37
- pain to distension (VAS score) ([2]; 16 mm Hg, 0.5 mg/kg, Part A (placebo 33)): 28
- sensation to distension (VAS score) ([2]; 16 mm Hg, 0.5 mg/kg, Part A (placebo 43)): 37
- pain to distension (VAS score) ([2]; 16 mm Hg, 1.5 mg/kg, Part B (placebo 21)): 37
- sensation to distension (VAS score) ([2]; 16 mm Hg, 1.5 mg/kg, Part B (placebo 23)): 38
- pain to distension (VAS score) ([2]; 24 mm Hg, 0.15 mg/kg, Part A (placebo 38)): 30
- sensation to distension (VAS score) ([2]; 24 mm Hg, 0.15 mg/kg, Part A (placebo 43)): 45
- pain to distension (VAS score) ([2]; 24 mm Hg, 0.5 mg/kg, Part A (placebo 38)): 32
- sensation to distension (VAS score) ([2]; 24 mm Hg, 0.5 mg/kg, Part A (placebo 43)): 41
- pain to distension (VAS score) ([2]; 24 mm Hg, 1.5 mg/kg, Part B (placebo 30)): 40
- sensation to distension (VAS score) ([2]; 24 mm Hg, 1.5 mg/kg, Part B (placebo 42)): 41
- pain to distension (VAS score) ([2]; 32 mm Hg, 0.15 mg/kg, Part A (placebo 48)): 42
- sensation to distension (VAS score) ([2]; 32 mm Hg, 0.15 mg/kg, Part A (placebo 54)): 53
- pain to distension (VAS score) ([2]; 32 mm Hg, 0.5 mg/kg, Part A (placebo 48)): 38
- sensation to distension (VAS score) ([2]; 32 mm Hg, 0.5 mg/kg, Part A (placebo 54)): 47
- pain to distension (VAS score) ([2]; 32 mm Hg, 1.5 mg/kg, Part B (placebo 43)): 47
- sensation to distension (VAS score) ([2]; 32 mm Hg, 1.5 mg/kg, Part B (placebo 51)): 43
- perception of pain (in words) ([2]; Barostat test, no dose stated): no significant reduction in the perception of pain could be observed
- scores for pain and sensation versus placebo (in words) ([2]; higher doses (1.5 mg/kg)): significantly higher scores for pain and sensation were observed versus placebo
